Experimental data taken from the METLIN SMRT retention time set (Domingo-Almenara et al. 2019).

Assay: gradient 5% acetonitrile 3 min, to 50% in 2 min, to 85% in 15 min, held 3 min, 100 µL/min
Settings: column: Zorbax Extend-C18 2.1 x 50 mm; eluents: water / acetonitrile, 0.1% formic acid
How it was run: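 Retention time was recorded from adduct peaks, which were picked computationally and each inspected manually. Pure standards ran in mixtures of ~100 molecules on HPLC coupled to a quadrupole time-of-flight mass spectrometer, in positive and negative ionization mode, through a Zorbax Extend-C18 column (2.1 × 50 mm, 1.8 μm) at 100 μL/min. Eluents were water and acetonitrile, each with 0.1% formic acid.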

Row | RP-LC retention time | Structure (SMILES)
1 | 618 s | O=C(C1=NNc2ccccc2S1(=O)=O)N1CCOCC1
2 | 910 s | Cn1c(=O)c(N2CCC(NC(=O)Nc3ccccc3F)CC2)nc2ccccc21
3 | 822 s | COc1ccc(C2(C(=O)N3CCCC(c4nc(C5CCOCC5)no4)C3)CC2)cc1 (stereo not given)
4 | 859 s | COc1ccc(OC)c(NC(=O)Cn2c(=O)nc(N3CCC(C)CC3)c3ccccc32)c1
5 | 1110 s | CCOC(=O)c1nc(N2CCN(c3ccc(C)cc3C)CC2)c2ccccc2n1
6 | 848 s | Cc1nc(C(=O)Nc2ccc(F)cc2)c(C)o1
7 | 621 s | COC(=O)c1ccc(NC(=O)CN2CCC(c3nc(-c4cccs4)no3)CC2)cc1
8 | 605 s | Cc1c(C(=O)NC2CC2)cc(-c2ccccc2)n1C
9 | 621 s | Cc1noc(C)c1COc1ccccc1CN1CCC2(CCC2O)CC1 (stereo not given)
10 | 684 s | Cc1cccc(-c2ncccc2CNS(=O)(=O)Cc2ccccc2)c1
11 | 837 s | COc1ccc(OC)c(NC(=O)NC2CCN(c3ccc(C)cc3)C2=O)c1 (stereo not given)
12 | 1340 s | O=C(CCC1CCCC1)Nc1nc(-c2ccc3ccccc3c2)cs1
13 | 868 s | O=C(O)C1CCN(c2nc3ccc(-c4ccccc4)nc3s2)CC1
14 | 589 s | Cc1nnc2cc(N3CCN(Cc4csc5c4CCCC5)CC3)cnn12
15 | 883 s | Cc1cccc(CSc2nnc3c(S(=O)(=O)N4CCCC4)cccn23)c1
16 | 616 s | O=C(NCCN1CCOCC1)c1nc2ccccn2c1-c1ccc(F)cc1
17 | 1000 s | CCCC(=O)N1CCN(c2nc3ccccc3n(CC(C)C)c2=O)CC1
18 | 728 s | COCCn1cc(CCNC(=O)Nc2cccc(C)c2)c2cccnc21

Row | RP-LC retention time | Structure (SMILES)
19 | 919 s | CCC(=O)Nc1c(C)noc1/C=C/c1ccc(S(=O)(=O)N2CCC(C)CC2)s1
20 | 972 s | Cc1ccc(NC(=O)Cn2c(=O)cc(-c3nc(C)no3)c3ccccc32)c(C)c1
21 | 957 s | CCn1c(=O)sc2cc(S(=O)(=O)N3CCC(C(=O)NC4CCCc5ccccc54)CC3)ccc21 (stereo not given)
22 | 738 s | O=C(Nc1ccccc1F)C1CCN(C(=O)c2ncn3c2COC(c2ccc(F)cc2)C3)CC1 (stereo not given)
23 | 675 s | COc1cccc(-c2nc3cnccn3c2NCCC(=O)NC2CCCC2)c1
24 | 845 s | COC(=O)c1ccc(NC(=O)N2CCCC2c2cc(C(C)C)no2)cc1 (stereo not given)
25 | 824 s | CC(=O)c1ccc(N2CCN(C(=O)Cn3cccc3-c3nnc(C4CCC4)o3)CC2)cc1
26 | 803 s | COc1ccc(OC)c(NC(=O)N2CCC(CC(=O)NCc3ccc(F)cc3)CC2)c1
27 | 955 s | Cc1ccc(-c2nnc(-c3nc(NCCc4c(C)noc4C)c4ccccc4n3)o2)cc1
28 | 946 s | Cc1ccc(N2CCC(NC(=O)Cc3ccc(Cl)cc3)C2=O)cc1C (stereo not given)
29 | 944 s | Cc1sc(-c2nnc(C3CC3)o2)cc1NC(=O)Cc1ccccc1F
30 | 556 s | CCOC(=O)CNC(=O)N1CCN(c2nc3ccccc3n3cccc23)CC1
31 | 754 s | CC1(C(=O)NCc2ccc3c(c2)OCO3)CCN(C(=O)c2ccc(C#N)cc2)CC1
32 | 835 s | CCN1c2cc(F)ccc2C(=O)NC12CCN(C(=O)c1ccccc1C)CC2
33 | 1070 s | CCOc1ccc(-c2nc(C3CC(=O)N(c4ccc(C)cc4)C3)no2)cc1 (stereo not given)
34 | 874 s | CCc1ccc(NC(=O)Cn2nc(N3CCOCC3)c3ccccc3c2=O)cc1
35 | 938 s | Fc1ccc(OCc2nnc3sc(COc4ccccc4)nn23)cc1
36 | 863 s | CC(=O)Nc1nsc(N2CCC(C(=O)NCc3ccc(F)cc3Cl)CC2)n1

The remaining lines, values behind:

Row | Structure (SMILES) | RP-LC retention time
37 | COc1ccccc1C(CNC(=O)c1cc(=O)c2ccc(C)c(C)c2o1)N(C)C (stereo not given) | 639 s
38 | CCCC1OC(c2cc3c(cc2Cl)OCO3)OCC1CC (stereo not given) | 1070 s
39 | C=CCNS(=O)(=O)CCNC(=O)c1ccccc1 | 629 s
40 | Cc1ccc(NC(=O)Cn2cnc3nc(N4CCCC(C(=O)NC(C)C)C4)sc3c2=O)cc1 (stereo not given) | 711 s
41 | O=C(NCCc1ccc(Cl)cc1)c1nnc(-c2ccc(S(=O)(=O)N3CCCCC3)cc2)o1 | 1110 s
42 | CCN(CC)S(=O)(=O)c1ccc(NC(=O)c2oc3c(c2C)C(=O)CC(C)(C)C3)cc1 | 982 s
43 | CCOC(=O)C1=C(C)NC2=C(C(=O)c3ccccc32)C1c1ccc(OC)c(OC)c1 (stereo not given) | 902 s
44 | CC(C)n1nnc2cc(C(=O)N(C)CC(=O)Nc3ccc(Cl)cc3)ccc21 | 793 s
45 | CC(C)n1cnc2cc(CNC(=O)c3ccccc3F)ccc21 | 606 s
46 | CCN1C(=O)c2ccccc2Oc2ccc(C(=O)NCc3cccs3)cc21 | 911 s
47 | CC(C)c1ccc(S(=O)(=O)N(CC(=O)N2CCNCC2)CC(C)c2ccccc2)cc1 (stereo not given) | 772 s
48 | O=C(CN1CCN(C(=O)Nc2ccc(Br)cc2)CC1=O)NC1CCCCCC1 | 786 s
49 | CCc1nn2c(CNS(=O)(=O)c3ccccc3)c(-c3ccccc3)nc2s1 | 901 s
50 | O=C(c1ccsc1)N1[C@H]2CC[C@@H]1c1cnc(-c3ccc(F)cc3)nc1C2 | 952 s
51 | CC(=O)Nc1cccc(-n2cc3c(c2-c2ccccc2Cl)c(=O)n(C)c(=O)n3C)c1 | 768 s
52 | O=C(CN1C(=O)COc2ccc(C(=O)N3CCCCC3)cc21)NC1CCCCCCC1 | 844 s
53 | Cc1ccc2c(c1)C(O)(CC(=O)c1cccc(Br)c1)C(=O)N2 (stereo not given) | 789 s
54 | CN1C(=O)c2cc(C(=O)NCc3ccccc3F)nn2CC1(C)C(=O)NCc1ccc(F)cc1 (stereo not given) | 792 s
55 | Nc1cc(=O)nc(SCC(=O)NC2CCCCC2)n1-c1cccc(C(F)(F)F)c1 | 649 s
56 | c1ccc(-c2csc(Nc3cccnc3)n2)cc1 | 674 s
57 | CN(Cc1ccccc1)C(=O)c1ccc(-c2cccs2)nc1 | 920 s
58 | O=C(c1cc2ccccc2oc1=O)N1CCCC(c2nnc(-c3ccccc3)o2)C1 (stereo not given) | 793 s
59 | Cc1ccc(C)c(NC(=O)Nc2ccc(-c3cn4ccc(C)nc4n3)cc2)c1 | 690 s
60 | CCN(CC)CCCN(c1ccccc1)C1Cc2ccccc2C1 | 754 s
61 | O=C(NC1CCCC1)C1CCCN(c2ccc(=O)n(-c3cccc(Cl)c3)n2)C1 (stereo not given) | 845 s
62 | CCn1cc(-c2nc(CC(=O)NCc3ccc(F)cc3)cs2)c2cccnc21 | 865 s
63 | CCOC(=O)c1nn(-c2ccccc2)c(=O)cc1NCc1ccccn1 | 649 s

Row | Structure (SMILES) | RP-LC retention time
64 | O=C(NC1CCCCC1)C1CCN(C(=O)c2ncn3c2COC(c2ccc(Cl)cc2)C3)CC1 (stereo not given) | 844 s
65 | O=C(c1cn2c(n1)COCC2)N1CCN(c2cccc(Cl)c2)CC1 | 708 s
66 | CC(C)CCNC(=O)C1CCCN(c2ccc(=O)n(-c3cccc(F)c3)n2)C1 (stereo not given) | 868 s
67 | Cc1ccc(S(=O)(=O)N2CC3CN(C(=O)C4COc5ccccc5O4)CC(C2)O3)cc1 (stereo not given) | 928 s
68 | COCC(=O)Nc1ccccc1NC(=O)c1ccco1 | 618 s
69 | Cc1cc(C)c(C)c(S(=O)(=O)NCCc2cn(CC(C)C)c3ncccc23)c1C | 1120 s
70 | CSc1ccc(CNC(=O)c2cn3ccc(C)cc3n2)cc1 | 699 s
71 | CSc1nc(Nc2cccc(Cl)c2)c(C#N)c(-c2ccccc2)n1 | 1280 s
72 | Cc1ccc(-c2nnc(Cc3nc(-c4ccc(OC(C)C)cc4)no3)o2)cc1C | 1240 s
73 | CC(C)(C)c1noc(-c2ccnc(-n3cnc(C(=O)NCC4CC4)c3)c2)n1 | 1110 s
74 | CCNC(=O)C1(CCO)CCN(c2ncccn2)C1 (stereo not given) | 539 s
75 | O=S(=O)(Nc1ccc(F)cc1)c1ccccc1-c1nc(-c2ccccc2)no1 | 1140 s
76 | Cc1sc(C)c(S(=O)(=O)NCC2CCCO2)c1-c1cc(C(F)(F)F)on1 (stereo not given) | 1020 s
77 | CN1C(=O)c2cccnc2Sc2cc(NC(=O)c3cccc(C(F)(F)F)c3)ccc21 | 910 s
78 | C[C@H]1CN(C(=O)Nc2ccc(Cl)cc2)C[C@@H]1c1nc(-c2cccnc2)no1 | 863 s
79 | CN(C)c1ccc(-c2nc3ccccc3s2)cc1 | 1130 s
80 | O=C(NCc1cccc(Cl)c1)c1cccn1-c1cccnc1 | 749 s
81 | Cc1nc(-c2cnccn2)n(CC(=O)Nc2ccc(F)cc2)c(=O)c1C | 709 s
82 | CCOc1ccc(-n2c(N3CCN(C)CC3)nc3cc(C(=O)OC)ccc3c2=O)cc1 | 645 s
83 | COc1ccc(Cl)c2c(=O)c3c([nH]c12)CCN(CC(=O)Nc1cc(F)ccc1F)C3 | 625 s
84 | O=C1CN(C(=O)Cc2ccc(Cl)cc2)C2(CCCC2)CN1 | 761 s
85 | CCOc1ccc(CC(=O)N2CCc3cc(-c4csc(C)n4)ccc32)cc1 | 1060 s
86 | N#Cc1cccc(-c2cn3c(n2)N(C(=O)c2ccco2)CCC3)c1 | 645 s
87 | O=C(Cc1ccc(NC(=O)c2ccsc2)cc1)NCc1cccs1 | 725 s
88 | COC(=O)c1cc(OCC(=O)Nc2ccccc2F)c2cc(F)ccc2n1 | 857 s
89 | O=C(CNC(=O)c1ccc(=O)[nH]c1)NCc1ccc(OCc2ccccc2)cc1 | 661 s
90 | CC(C)n1cnc2cc(CNC(=O)c3cc(F)ccc3F)ccc21 | 610 s
